Source: patent US5424286A (priority 1993, dated 1995)

Tests used:
insulin secretion = assay: Alternating bolus injections of GLP-1 and exendin-4 via left atrial catheter in anesthetized dogs; conditions: after normalization of hyperglycemia and in euglycemic state
Procedure: GLP-1(7-36) amide was given at time 0 (0.1 nmol) and at 40 min (1 nmol).

[1] = cited from earlier work

Compound | hypoglycemia (insulin secretion) | meal-related increases in blood glucose concentration and plasma insulin and glucagon ([1]; normal subjects, infusion) | lowering of the insulin required ([1]; patients with IDDM) | reduction of the requirement for insulin ([1]; patients with NIDDM) [fold]
CC[C@H](C)[C@H](NC(=O)[C@H](Cc1ccccc1)NC(=O)[C@H](CCC(=O)O)NC(=O)[C@H](CCCCN)NC(=O)[C@H](C)NC(=O)[C@H](C)NC(=O)[C@H](CCC(N)=O)NC(=O)CNC(=O)[C@H](CCC(=O)O)NC(=O)[C@H](CC(C)C)NC(=O)[C@H](Cc1ccc(O)cc1)NC(=O)[C@H](CO)NC(=O)[C@H](CO)NC(=O)[C@@H](NC(=O)[C@H](CC(=O)O)NC(=O)[C@H](CO)NC(=O)[C@@H](NC(=O)[C@H](Cc1ccccc1)NC(=O)[C@@H](NC(=O)CNC(=O)[C@H](CCC(=O)O)NC(=O)[C@H](C)NC(=O)[C@@H](N)Cc1c[nH]cn1)[C@@H](C)O)[C@@H](C)O)C(C)C)C(=O)N[C@@H](C)C(=O)N[C@@H](Cc1c[nH]c2ccccc12)C(=O)N[C@@H](CC(C)C)C(=O)N[C@H](C(=O)N[C@@H](CCCCN)C(=O)NCC(=O)N[C@@H](CCCNC(=N)N)C(N)=O)C(C)C [GLP-1, glucagon-like peptide-1] | hypoglycemia does not occur |  |  | 
glucagon-like insulinotropic peptide [GLIP] |  | significantly lowered | one half | 8
